Several values for one entry are separate records, joined by “and”; a condition that tells them apart may be missing. Identical values can stand only once.
Test system: 287954-098-R-J1 tumor spheroid viability
Assay: Anticancer human tumor 287954-098-R-J1 patient-derived Ewing sarcoma cell line growth inhibition
Settings: spheroids with HUVEC and MSC; for viability, T/C: stronger effect = lower value
Outline: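 Complex spheroids of malignant cells with endothelial cells and mesenchymal stem cells; agents alone or combined, from near clinical Cmax (or 10 microM if unknown) down in half-log steps, 0.25% DMSO final.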

[1] = curve of first compound, second compound 30 pM
[2] = curve of first compound, second compound 94.9 pM
[3] = curve of first compound, second compound 0.0003 µM
[4] = curve of first compound, second compound 0.000949 µM
[5] = curve of first compound, second compound 0.003 µM
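Further: spheroids exposed to compound for 7 days before viability readout.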
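Wherever viability, T/C is given: luminescent signal taken as surrogate of viable cell content; 100% = DMSO vehicle control viability and lower means growth inhibition.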

O=C(c1cc(Cc2n[nH]c(=O)c3ccccc23)ccc1F)N1CCN(C(=O)C2CC2)CC1 + COc1cc2c(cc1O)CCNC21CSC2c3c(OC(C)=O)c(C)c4c(c3C(COC1=O)N1C(O)C3Cc5cc(C)c(OC)c(O)c5C(C21)N3C)OCO4
IC50 [1]: 9180 nM
IC50 [2]: 10500 nM
IC50 [3]: 1460 nM
IC50 [4]: < 94.9 nM
IC50 [5]: < 94.9 nM
viability, T/C (second compound 30 pM, first compound 0.0949 µM): 112%
viability, T/C (second compound 30 pM, first compound 0.3 µM): 108%
viability, T/C (second compound 30 pM, first compound 0.949 µM): 99.5%
viability, T/C (second compound 30 pM, first compound 3 µM): 112%
viability, T/C (second compound 30 pM, first compound 9.49 µM): 48.3%
viability, T/C (second compound 30 pM, first compound 30 µM): 4.03%
viability, T/C (second compound 94.9 pM, first compound 0.0949 µM): 114%
viability, T/C (second compound 94.9 pM, first compound 0.3 µM): 114%
viability, T/C (second compound 94.9 pM, first compound 0.949 µM): 109%
viability, T/C (second compound 94.9 pM, first compound 3 µM): 109%
viability, T/C (second compound 94.9 pM, first compound 9.49 µM): 54.4%
viability, T/C (second compound 94.9 pM, first compound 30 µM): 2.51%
viability, T/C (second compound 0.0003 µM, first compound 0.0949 µM): 98.8%
viability, T/C (second compound 0.0003 µM, first compound 0.3 µM): 102%
viability, T/C (second compound 0.0003 µM, first compound 0.949 µM): 68%
viability, T/C (second compound 0.0003 µM, first compound 3 µM): 18.6%
viability, T/C (second compound 0.0003 µM, first compound 9.49 µM): 0.6%
viability, T/C (second compound 0.0003 µM, first compound 30 µM): 0.57%
viability, T/C (second compound 0.000949 µM, first compound 0.0949 µM): 0.38%
viability, T/C (second compound 0.000949 µM, first compound 0.3 µM): 0.39%
viability, T/C (second compound 0.000949 µM, first compound 0.949 µM): 0.26%
viability, T/C (second compound 0.000949 µM, first compound 3 µM): 0.18%
viability, T/C (second compound 0.000949 µM, first compound 9.49 µM): 0.07%
viability, T/C (second compound 0.000949 µM, first compound 30 µM): 0.23%
viability, T/C (second compound 0.003 µM, first compound 0.0949 µM): 0.32%
viability, T/C (second compound 0.003 µM, first compound 0.3 µM): 0.31%
viability, T/C (second compound 0.003 µM, first compound 0.949 µM): 0.3%
viability, T/C (second compound 0.003 µM, first compound 3 µM): 0.29%
viability, T/C (second compound 0.003 µM, first compound 9.49 µM): 0.28%
viability, T/C (second compound 0.003 µM, first compound 30 µM): 0.35%

CC(C)n1c(=O)n(C)c2cnc3cc(F)c(-c4ccc(OCCCN5CCCCC5)nc4)cc3c21 + COc1cc2c(cc1O)CCNC21CSC2c3c(OC(C)=O)c(C)c4c(c3C(COC1=O)N1C(O)C3Cc5cc(C)c(OC)c(O)c5C(C21)N3C)OCO4
IC50 [1]: 4530 nM
IC50 [2]: < 31.6 nM
IC50 [3]: < 31.6 nM
IC50 [4]: < 31.6 nM
IC50 [5]: < 31.6 nM
viability, T/C (second compound 30 pM, first compound 0.0316 µM): 44.4%
viability, T/C (second compound 30 pM, first compound 0.1 µM): 84.8%
viability, T/C (second compound 30 pM, first compound 0.316 µM): 62.4%
viability, T/C (second compound 30 pM, first compound 1 µM): 85.3%
viability, T/C (second compound 30 pM, first compound 3.16 µM): 81.3%
viability, T/C (second compound 30 pM, first compound 10 µM): 2.07%
viability, T/C (second compound 94.9 pM, first compound 0.0316 µM): 14.9%
viability, T/C (second compound 94.9 pM, first compound 0.1 µM): 14.4%
viability, T/C (second compound 94.9 pM, first compound 0.316 µM): 8.68%
viability, T/C (second compound 94.9 pM, first compound 1 µM): 14.2%
viability, T/C (second compound 94.9 pM, first compound 3.16 µM): 8.71%
viability, T/C (second compound 94.9 pM, first compound 10 µM): 0.47%
viability, T/C (second compound 0.0003 µM, first compound 0.0316 µM): 1.47%
viability, T/C (second compound 0.0003 µM, first compound 0.1 µM): 1.47%
viability, T/C (second compound 0.0003 µM, first compound 0.316 µM): 1.52%
viability, T/C (second compound 0.0003 µM, first compound 1 µM): 1.56%
viability, T/C (second compound 0.0003 µM, first compound 3.16 µM): 1.71%
viability, T/C (second compound 0.0003 µM, first compound 10 µM): 0.41%
viability, T/C (second compound 0.000949 µM, first compound 0.0316 µM): 0.31%
viability, T/C (second compound 0.000949 µM, first compound 0.1 µM): 0.27%
viability, T/C (second compound 0.000949 µM, first compound 0.316 µM): 0.36%
viability, T/C (second compound 0.000949 µM, first compound 1 µM): 0.6%
viability, T/C (second compound 0.000949 µM, first compound 3.16 µM): 0.33%
viability, T/C (second compound 0.000949 µM, first compound 10 µM): 0.36%
viability, T/C (second compound 0.003 µM, first compound 0.0316 µM): 0.18%
viability, T/C (second compound 0.003 µM, first compound 0.1 µM): 0.2%
viability, T/C (second compound 0.003 µM, first compound 0.316 µM): 0.18%
viability, T/C (second compound 0.003 µM, first compound 1 µM): 0.23%
viability, T/C (second compound 0.003 µM, first compound 3.16 µM): 0.25%
viability, T/C (second compound 0.003 µM, first compound 10 µM): 0.4%

CC1COCCN1c1cc(-c2ccnn2C)c2ccnc(-c3ccn[nH]3)c2n1 (configuration not stated)
viability, T/C (compound 0.0316 µM): 107% and 114% and 106%
viability, T/C (compound 0.1 µM): 78.3% and 89.9% and 97.7%
viability, T/C (compound 0.316 µM): 22.6% and 21.9% and 32.2%
viability, T/C (compound 1 µM): 6.79% and 3.9% and 8.44%
viability, T/C (compound 3.16 µM): 1.99% and 1.74% and 1.91%
viability, T/C (compound 10 µM): 3.29% and 2.26% and 3.3%
IC50 (curve of compound): 180 nM and 197 nM and 232 nM

From PubChem BioAssay AID1845194 (Molecular Pharmacology Branch, DTP, NCI, 2023)
